{
  "source": "ChEMBL document CHEMBL3885881",
  "about": "“DrugMatrix”",
  "species": "Rattus norvegicus",
  "format": "toxicity, organism-based, Sprague-Dawley",
  "details": "in vivo, ip, 24 h, route intraperitoneal, time 1 day, […]; for ABSOLUTE EOSINOPHIL / ABSOLUTE LYMPHOCYTE / ABSOLUTE MONOCYTE / ABSOLUTE SEGMENTED NEUTROPHIL / BASOPHIL / EOSINOPHIL / ERYTHROCYTE COUNT / HEMATOCRIT / HEMOGLOBIN / LEUKOCYTE COUNT / LYMPHOCYTE / MEAN CORPUSCULAR HEMOGLOBIN / MEAN CORPUSCULAR HEMOGLOBIN CONCENTRATION / MEAN CORPUSCULAR VOLUME / MONOCYTE / NEUTROPHIL / NUCLEATED RED BLOOD CELLS / PLATELET COUNT: tissue Blood; for ALANINE AMINOTRANSFERASE / ALBUMIN / ALKALINE PHOSPHATASE / ASPARTATE AMINOTRANSFERASE / BLOOD UREA NITROGEN / CARBON DIOXIDE / CHLORIDE / CHOLESTEROL / CREATININE / GLUCOSE / LACTATE DEHYDROGENASE / LIPASE / PHOSPHORUS / POTASSIUM / SODIUM / TOTAL BILIRUBIN / TOTAL PROTEIN / URIC ACID: tissue Plasma",
  "key": {"[1]": {"details": "0 mg/kg, vehicle control, dose level Control"}},
  "description": "DrugMatrix - Regimen: Single",
  "data": [
    {"smiles": "ClC(Cl)=C(Cl)C(Cl)=C(Cl)Cl", "note": "[HEXACHLOROBUTADIENE]", "values": [
      {"measurement": "ABSOLUTE EOSINOPHIL", "setting": "[1]", "value": 212, "unit": "CELLS/uL"},
      {"measurement": "ABSOLUTE LYMPHOCYTE", "setting": "[1]", "value": 10220.17, "unit": "CELLS/uL"},
      {"measurement": "ABSOLUTE MONOCYTE", "setting": "[1]", "value": 368.83, "unit": "CELLS/uL"},
      {"measurement": "ABSOLUTE SEGMENTED NEUTROPHIL", "setting": "[1]", "value": 1749, "unit": "CELLS/uL"},
      {"measurement": "BASOPHIL", "setting": "[1]", "value": 0, "unit": "%"},
      {"measurement": "EOSINOPHIL", "setting": "[1]", "value": 1.67, "unit": "%"},
      {"measurement": "ERYTHROCYTE COUNT", "setting": "[1]", "value": 5.74, "unit": "x10E6/uL"},
      {"measurement": "HEMATOCRIT", "setting": "[1]", "value": 35.72, "unit": "%"},
      {"measurement": "HEMOGLOBIN", "setting": "[1]", "value": 13, "unit": "G/DL"},
      {"measurement": "LEUKOCYTE COUNT", "setting": "[1]", "value": 12.55, "unit": "x10E3/uL"},
      {"measurement": "LYMPHOCYTE", "setting": "[1]", "value": 81.83, "unit": "%"},
      {"measurement": "MEAN CORPUSCULAR HEMOGLOBIN", "setting": "[1]", "value": 22.65, "unit": "pg"},
      {"measurement": "MEAN CORPUSCULAR HEMOGLOBIN CONCENTRATION", "setting": "[1]", "value": 36.42, "unit": "G/DL"},
      {"measurement": "MEAN CORPUSCULAR VOLUME", "setting": "[1]", "value": 62.18, "unit": "fL"},
      {"measurement": "MONOCYTE", "setting": "[1]", "value": 2.83, "unit": "%"},
      {"measurement": "NEUTROPHIL", "setting": "[1]", "value": 13.67, "unit": "%"},
      {"measurement": "NUCLEATED RED BLOOD CELLS", "setting": "[1]", "value": "0 /100WBC"},
      {"measurement": "PLATELET COUNT", "setting": "[1]", "value": 841.83, "unit": "x10E3/uL"},
      {"measurement": "ALANINE AMINOTRANSFERASE", "setting": "[1]", "value": 54, "unit": "u/L"},
      {"measurement": "ALBUMIN", "setting": "[1]", "value": 4.15, "unit": "G/DL"},
      {"measurement": "ALKALINE PHOSPHATASE", "setting": "[1]", "value": 357.33, "unit": "u/L"},
      {"measurement": "ASPARTATE AMINOTRANSFERASE", "setting": "[1]", "value": 116, "unit": "u/L"},
      {"measurement": "BLOOD UREA NITROGEN", "setting": "[1]", "value": 14.17, "unit": "mg/dL"},
      {"measurement": "CARBON DIOXIDE", "setting": "[1]", "value": 34.5, "unit": "mmol/L"},
      {"measurement": "CHLORIDE", "setting": "[1]", "value": 99.17, "unit": "MEQ/L"},
      {"measurement": "CHOLESTEROL", "setting": "[1]", "value": 79.17, "unit": "mg/dL"},
      {"measurement": "CREATININE", "setting": "[1]", "value": 0.2, "unit": "mg/dL"},
      {"measurement": "GLUCOSE", "setting": "[1]", "value": 143.33, "unit": "mg/dL"},
      {"measurement": "LACTATE DEHYDROGENASE", "setting": "[1]", "value": 187.17, "unit": "u/L"},
      {"measurement": "LIPASE", "setting": "[1]", "value": 8.83, "unit": "u/L"},
      {"measurement": "PHOSPHORUS", "setting": "[1]", "value": 11.4, "unit": "mg/dL"},
      {"measurement": "POTASSIUM", "setting": "[1]", "value": 6.36, "unit": "MEQ/L"},
      {"measurement": "SODIUM", "setting": "[1]", "value": 143.32, "unit": "MEQ/L"},
      {"measurement": "TOTAL BILIRUBIN", "setting": "[1]", "value": 0.23, "unit": "mg/dL"},
      {"measurement": "TOTAL PROTEIN", "setting": "[1]", "value": 6.22, "unit": "G/DL"},
      {"measurement": "URIC ACID", "setting": "[1]", "value": 1.25, "unit": "mg/dL"},
      {"measurement": "ABSOLUTE EOSINOPHIL", "setting": "50 mg/kg, dose level High", "value": 167, "unit": "CELLS/uL"},
      {"measurement": "ABSOLUTE LYMPHOCYTE", "setting": "50 mg/kg, dose level High", "value": 9489, "unit": "CELLS/uL"},
      {"measurement": "ABSOLUTE MONOCYTE", "setting": "50 mg/kg, dose level High", "value": 340.67, "unit": "CELLS/uL"},
      {"measurement": "ABSOLUTE SEGMENTED NEUTROPHIL", "setting": "50 mg/kg, dose level High", "value": 2070, "unit": "CELLS/uL"},
      {"measurement": "BASOPHIL", "setting": "50 mg/kg, dose level High", "value": 0, "unit": "%"},
      {"measurement": "EOSINOPHIL", "setting": "50 mg/kg, dose level High", "value": 1.33, "unit": "%"},
      {"measurement": "ERYTHROCYTE COUNT", "setting": "50 mg/kg, dose level High", "value": 5.16, "unit": "x10E6/uL"},
      {"measurement": "HEMATOCRIT", "setting": "50 mg/kg, dose level High", "value": 31.83, "unit": "%"},
      {"measurement": "HEMOGLOBIN", "setting": "50 mg/kg, dose level High", "value": 11.8, "unit": "G/DL"},
      {"measurement": "LEUKOCYTE COUNT", "setting": "50 mg/kg, dose level High", "value": 12.07, "unit": "x10E3/uL"},
      {"measurement": "LYMPHOCYTE", "setting": "50 mg/kg, dose level High", "value": 79.33, "unit": "%"},
      {"measurement": "MEAN CORPUSCULAR HEMOGLOBIN", "setting": "50 mg/kg, dose level High", "value": 22.87, "unit": "pg"},
      {"measurement": "MEAN CORPUSCULAR HEMOGLOBIN CONCENTRATION", "setting": "50 mg/kg, dose level High", "value": 37.07, "unit": "G/DL"},
      {"measurement": "MEAN CORPUSCULAR VOLUME", "setting": "50 mg/kg, dose level High", "value": 61.67, "unit": "fL"},
      {"measurement": "MONOCYTE", "setting": "50 mg/kg, dose level High", "value": 2.67, "unit": "%"},
      {"measurement": "NEUTROPHIL", "setting": "50 mg/kg, dose level High", "value": 16.67, "unit": "%"},
      {"measurement": "NUCLEATED RED BLOOD CELLS", "setting": "50 mg/kg, dose level High", "value": "0 /100WBC"},
      {"measurement": "PLATELET COUNT", "setting": "50 mg/kg, dose level High", "value": 549, "unit": "x10E3/uL"},
      {"measurement": "ALANINE AMINOTRANSFERASE", "setting": "50 mg/kg, dose level High", "value": 65.67, "unit": "u/L"},
      {"measurement": "ALBUMIN", "setting": "50 mg/kg, dose level High", "value": 4.2, "unit": "G/DL"},
      {"measurement": "ALKALINE PHOSPHATASE", "setting": "50 mg/kg, dose level High", "value": 368.67, "unit": "u/L"},
      {"measurement": "ASPARTATE AMINOTRANSFERASE", "setting": "50 mg/kg, dose level High", "value": 251.67, "unit": "u/L"},
      {"measurement": "BLOOD UREA NITROGEN", "setting": "50 mg/kg, dose level High", "value": 15.33, "unit": "mg/dL"},
      {"measurement": "CARBON DIOXIDE", "setting": "50 mg/kg, dose level High", "value": 30.33, "unit": "mmol/L"},
      {"measurement": "CHLORIDE", "setting": "50 mg/kg, dose level High", "value": 100.67, "unit": "MEQ/L"},
      {"measurement": "CHOLESTEROL", "setting": "50 mg/kg, dose level High", "value": 75.67, "unit": "mg/dL"},
      {"measurement": "CREATININE", "setting": "50 mg/kg, dose level High", "value": 0.22, "unit": "mg/dL"},
      {"measurement": "GLUCOSE", "setting": "50 mg/kg, dose level High", "value": 192.33, "unit": "mg/dL"},
      {"measurement": "LACTATE DEHYDROGENASE", "setting": "50 mg/kg, dose level High", "value": 377.67, "unit": "u/L"},
      {"measurement": "LIPASE", "setting": "50 mg/kg, dose level High", "value": 9, "unit": "u/L"},
      {"measurement": "PHOSPHORUS", "setting": "50 mg/kg, dose level High", "value": 12.03, "unit": "mg/dL"},
      {"measurement": "POTASSIUM", "setting": "50 mg/kg, dose level High", "value": 5.96, "unit": "MEQ/L"},
      {"measurement": "SODIUM", "setting": "50 mg/kg, dose level High", "value": 144.97, "unit": "MEQ/L"},
      {"measurement": "TOTAL BILIRUBIN", "setting": "50 mg/kg, dose level High", "value": 0.23, "unit": "mg/dL"},
      {"measurement": "TOTAL PROTEIN", "setting": "50 mg/kg, dose level High", "value": 6.1, "unit": "G/DL"},
      {"measurement": "URIC ACID", "setting": "50 mg/kg, dose level High", "value": 1.2, "unit": "mg/dL"}
    ]}
  ]
}
